Measured values from patent publication US10550143B2, “C,O-spiro aryl glycoside compounds, preparation therefor and use thereof” (SHANGHAI INSTITUTE OF MATERIA MEDICA, CHINESE ACADEMY OF …, priority 2015, dated 2020).
Marks after values point to notes of the source that are not given here.

Legend:
[1] = test system: db/db mice; assay: Chronic administration, fasting blood glucose in db/db mice; assay type: in vivo, mouse; settings: for fasting blood glucose Pre: before administration; for Hypoglycemic rate % week 1 / Hypoglycemic rate % week 2 / Hypoglycemic rate % week 3 / Hypoglycemic rate % week 4: fasting blood glucose
Protocol: (§1) Oral gavage administrated, daily dose volume was 10 mL/kg, administered once daily. Administration time was 9: 00-10:00 daily, and the administration period was 5 weeks.
The random blood glucose of mice in the normal control group, model control group, test substance administration group and positive control group were determined on the 7th, 14th, 21st, 28th day (9: 00-10:00) every week after the first administration, and food was removed and after 6 hours of starvation, the fasting blood glucose in each group was measured. Free drinking during the hunger process. The rate of decrease of blood glucose was calculated according to the following formula: Average hypoglycemic rate %=(Blood glucose of model control group−Blood glucose of administration group)/Model control group×100%

[2] = test system: SD rats; assay: Acute administration of A28 at multiple doses, glucose tolerance of SD rats; assay type: in vivo, rat; settings: SD rats OGTT; for Blood glucose level 0: before sugar
Protocol: (1) 80 SD rats were selected and starved overnight, took water freely, then randomly divided into 10 groups according to body weight and random blood glucose, 8 rats in each group. […] 1 h after oral gavage, 3 g/kg of glucose was orally administered to each group except blank control group, and the blood glucose level was monitored before the sugar administration, and at 15, 30, 60, 90 and 120 minutes after the sugar administration.
Average hypoglycemic rate %=(AUC0-120 min of solvent control group−AUC0-120 min of administration group)/(AUC0-120 min of solvent control group−AUC0-120 min of blank control group)*100%

[3] = test system: db/db mice; assay: Chronic administration, glycosylated hemoglobin level in db/db mice; assay type: in vivo, mouse; settings: for HbA1c Decline rate %: vs vehicle
Protocol: as §1
In the end of the above experiment, the orbital blood was taken from animals of each group and divided into two tubes, one was centrifuged to take blood cells for the determination of glycated hemoglobin content, the other tube was added with 25 μL EDTA in advance, centrifuged and the supernatant was taken to determine the indexes such as triglyceride (TG), total cholesterol (TC), total protein (TP), albumin, low density lipoprotein (LDL), high density lipoprotein (HDL), non-esterified fatty acid (NEFA) and so on.

[4] = test system: C57BL/6J mice; assay: Acute administration of A28 at multiple doses, urinary glucose of C57BL/6J mice; assay type: in vivo, mouse; settings: 24 h urine
Protocol: (1) 90 normal male C57BL/6J mice were selected and randomly divided into 9 groups according to body weight and blood glucose, 10 in each group. […] After oral gavage, the mice were placed in rats (mice) metabolic cages, […] and urine was collected after 24 h, and the urine volume was recorded, then preserved under −20° C. Rats take food and water freely during the experimental period.
(2) Index Determination: Glucose levels in urine are measured by the glucose assay kit.

[5] = test system: db/db mice; assay: Chronic administration, oral glucose tolerance in db/db mice; assay type: in vivo, mouse; settings: glucose tolerance, chronic administration; for AUC0-2 h reduction rate (%): vs vehicle
Protocol: as §1
The glucose tolerance of mice of normal control group, model control group, test substance group and positive control group were determined 3 weeks after administration of drug, oral administrated with 1.5 g/kg of glucose, and taken 2 μL of blood on the tail. 4 μL of normal saline was added to 96 well sharp bottom plate to dilute evenly, and then the blood glucose was measured. The blood glucose levels before the sugar administration and at 15, 30, 60, 90 and 120 min after the sugar administration were measured. The true blood glucose level was calculated and the area under the blood glucose curve within 120 min was calculated by the following formula: AUC0-2h (mmol/L·h)=(BG0+BG15)×0.25/2+(BG15+BG30)×0.25/2+(BG30+BG60)×0.5/2+(BG60+[…])×1.0/2 Note: BG0, BG15, BG30, BG60 and BG120 represent the blood glucose levels before the sugar administration, and at 15, 30, 60, and 120 min after sugar administration, respectively. Average hypoglycemic rate %=(solvent control group AUC0-2h−administration group AUC0-2h)/solvent control group AUC0-2h*100%

CCOc1ccc(Cc2cc([C@@H]3O[C@H](CO)[C@@H](O)[C@H](O)[C@H]3O)ccc2Cl)cc1 [Dapa]
fasting blood glucose week 1 ([1]; 1 mg/kg once daily oral): 9.4 ± 0.6 mmol/L
fasting blood glucose week 2 ([1]; 1 mg/kg once daily oral): 9.0 ± 0.6 mmol/L
fasting blood glucose week 3 ([1]; 1 mg/kg once daily oral): 10.0 ± 1.0 mmol/L
fasting blood glucose week 4 ([1]; 1 mg/kg once daily oral): 9.7 ± 0.7 mmol/L
fasting blood glucose Pre ([1]; 1 mg/kg once daily oral): 14.0 ± 1.0 mmol/L
fasting blood glucose week 1 ([1]; 3 mg/kg once daily oral): 8.1 ± 0.6 mmol/L
fasting blood glucose week 2 ([1]; 3 mg/kg once daily oral): 7.7 ± 0.6 mmol/L
fasting blood glucose week 3 ([1]; 3 mg/kg once daily oral): 8.6 ± 0.4 mmol/L
fasting blood glucose week 4 ([1]; 3 mg/kg once daily oral): 7.8 ± 0.4 mmol/L
fasting blood glucose Pre ([1]; 3 mg/kg once daily oral): 13.8 ± 1.2 mmol/L
Hypoglycemic rate % week 1 ([1]; 1 mg/kg once daily oral): 30.3%
Hypoglycemic rate % week 2 ([1]; 1 mg/kg once daily oral): 59.0%
Hypoglycemic rate % week 3 ([1]; 1 mg/kg once daily oral): 43.9%
Hypoglycemic rate % week 4 ([1]; 1 mg/kg once daily oral): 39.5%
Hypoglycemic rate % week 1 ([1]; 3 mg/kg once daily oral): 39.8%
Hypoglycemic rate % week 2 ([1]; 3 mg/kg once daily oral): 65.1%
Hypoglycemic rate % week 3 ([1]; 3 mg/kg once daily oral): 51.6%
Hypoglycemic rate % week 4 ([1]; 3 mg/kg once daily oral): 51.0%
AUC0-2 h ([2]; oral 1 mg/kg): 16.6 ± 1.2 mmol·h/L
Average hypoglycemic rate % (0-2 h) ([2]; oral 1 mg/kg): 35.1%
Blood glucose level 15 min ([2]; oral 1 mg/kg): 6.6 ± 0.7 mmol/L
Blood glucose level 30 min ([2]; oral 1 mg/kg): 7.8 ± 0.9 mmol/L
Blood glucose level 60 min ([2]; oral 1 mg/kg): 9.4 ± 1.1 mmol/L
Blood glucose level 90 min ([2]; oral 1 mg/kg): 9.5 ± 1.0 mmol/L
Blood glucose level 120 min ([2]; oral 1 mg/kg): 7.9 ± 1.3 mmol/L
Blood glucose level 0 ([2]; oral 1 mg/kg): 4.9 ± 0.4 mmol/L
AUC0-2 h ([2]; oral 3 mg/kg): 14.9 ± 1.0 mmol·h/L
Average hypoglycemic rate % (0-2 h) ([2]; oral 3 mg/kg): 51.5%
Blood glucose level 15 min ([2]; oral 3 mg/kg): 4.7 ± 0.2 mmol/L
Blood glucose level 30 min ([2]; oral 3 mg/kg): 6.9 ± 1.0 mmol/L
Blood glucose level 60 min ([2]; oral 3 mg/kg): 8.6 ± 1.0 mmol/L
Blood glucose level 90 min ([2]; oral 3 mg/kg): 8.6 ± 1.3 mmol/L
Blood glucose level 120 min ([2]; oral 3 mg/kg): 8.3 ± 1.2 mmol/L
Blood glucose level 0 ([2]; oral 3 mg/kg): 4.0 ± 0.6 mmol/L
HbA1c (%) ([3]; dose 1 mg/kg): 5.79 ± 0.32 %
HbA1c Decline rate % ([3]; dose 1 mg/kg): 23.7%
HbA1c (%) ([3]; dose 3 mg/kg): 5.32 ± 0.26 %
HbA1c Decline rate % ([3]; dose 3 mg/kg): 29.9%
Total sugar excretion ([4]; oral 1 mg/kg): 258.20 ± 81.71 mg/100 g
Urine concentration ([4]; oral 1 mg/kg): 142.82 ± 45.20 mmol/L
Urine volume ([4]; oral 1 mg/kg): 2.3 ± 0.7 mL
Total sugar excretion ([4]; oral 3 mg/kg): 315.49 ± 99.84 mg/100 g
Urine concentration ([4]; oral 3 mg/kg): 177.86 ± 56.29 mmol/L
Urine volume ([4]; oral 3 mg/kg): 2.3 ± 0.7 mL
Blood glucose AUC0-2 h ([5]; dose 1 mg/kg): 7.9 ± 1.7
Blood glucose (mmol/L) 0 min ([5]; dose 1 mg/kg): 10.0 ± 1.0 mmol/L
Blood glucose (mmol/L) 15 min ([5]; dose 1 mg/kg): 19.9 ± 1.0 mmol/L
Blood glucose (mmol/L) 30 min ([5]; dose 1 mg/kg): 20.3 ± 1.1 mmol/L
Blood glucose (mmol/L) 60 min ([5]; dose 1 mg/kg): 11.1 ± 0.5 mmol/L
Blood glucose (mmol/L) 90 min ([5]; dose 1 mg/kg): 10.8 ± 0.4* * mmol/L
Blood glucose (mmol/L) 120 min ([5]; dose 1 mg/kg): 11.8 ± 0.5* * mmol/L
AUC0-2 h reduction rate (%) ([5]; dose 1 mg/kg): 48.9%
Blood glucose AUC0-2 h ([5]; dose 3 mg/kg): 9.4 ± 1.7
Blood glucose (mmol/L) 0 min ([5]; dose 3 mg/kg): 8.6 ± 0.4 mmol/L
Blood glucose (mmol/L) 15 min ([5]; dose 3 mg/kg): 19.0 ± 1.2 mmol/L
Blood glucose (mmol/L) 30 min ([5]; dose 3 mg/kg): 20.2 ± 1.8 mmol/L
Blood glucose (mmol/L) 60 min ([5]; dose 3 mg/kg): 12.0 ± 1.4 mmol/L
Blood glucose (mmol/L) 90 min ([5]; dose 3 mg/kg): 9.9 ± 0.8 mmol/L
Blood glucose (mmol/L) 120 min ([5]; dose 3 mg/kg): 9.1 ± 0.6 mmol/L
AUC0-2 h reduction rate (%) ([5]; dose 3 mg/kg): 36.1%
